This note sets out measurements from PubChem BioAssay (NCI).

A word on the GI50: it is the concentration at which growth is held to half of that of the control. For orientation: TGI means the concentration giving total growth inhibition. A higher TGI goes with less potent growth arrest.

Holding throughout (assay): DTP human tumour cell line panel, 48 h
In test [1] the test system is SK-MEL-5 melanoma.
In test [2] the test system is LOX IMVI melanoma.
Test [3] has as its system HCT-116 colon.
Test [4] concerns A498 renal.
Test [5] has as its system TK-10 renal.
Test [6] concerns HL-60(TB) leukemia.
The test system of test [7] is SN12C renal.
The test system of test [8] is MALME-3M melanoma.
Test [9] deals with U251 CNS.
The test system of test [10] is HCC-2998 colon.

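Each compound was tested at five concentrations against cells in 96-well plates for 48 hours. Abbreviation: GI50, concentration required for 50% inhibition of growth. TGI marks complete inhibition of growth.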 Where a SMILES comes first, the peptide text is derived from it. [ ]: non-standard residue; d: D form. The star is where a group is joined. NMeF = CN[CH](Cc1ccccc1)C(=O)O; NMeV = CN[CH](C(=O)O)C(C)C; Boc = CC(C)(C)OC(=O)*

With `CCOC(=O)c1c(C)n(Cc2ccc(Cl)cc2Cl)c2c1c(CN(C)C)c(O)c1[nH]cnc12`, the GI50 is 17.2 µM in test [1]; 15.7 µM in test [2]; 19 µM in test [3]; 20 µM in test [4]; 22.7 µM in [5]; 2.01 µM in [6]. Also, the GI50 in test [7] is 15.1 µM; in test [8] it was 21.2 µM; in test [9], 14.8 µM. Moreover, the TGI is 30.9 µM in [1]; 29.1 µM in [2]; 33 µM in test [3]; 35 µM in [4]; 39.1 µM in test [5]; 8.33 µM in [6]. The TGI in test [7] stood at 28.6 µM; in test [8], 42.9 µM; in [9] it was 27.9 µM.

Regarding `COc1ccccc1CCc1cc(OC)c(OC)c(OC)c1`, the concentration for total growth inhibition (TGI) in test [1] is 42.7 µM; in [2], greater than 100 µM; in test [3] it was greater than 100 µM; in [4], greater than 100 µM; in test [5] it was greater than 100 µM; in test [6], 39.3 µM. The TGI in [7], in [8] and in test [9] was greater than 100 µM each time.

`COc1ccc(-c2n[nH]nc2-c2cc(OC)c(OC)c(OC)c2)cc1`: the GI50 in test [1] was less than 0.01 µM; in test [2] it was less than 0.01 µM; in test [3] it was less than 0.01 µM; in [4], less than 0.01 µM; in test [6] it was less than 0.01 µM; in test [10], 0.0189 µM. The 50% growth inhibitory concentration (GI50) in [7] and in [9] was less than 0.01 µM each time. For the same compound, the TGI in [1] is 0.0224 µM; in [2], greater than 57 µM; in test [3] it was greater than 100 µM; in [4], less than 0.0277 µM; in test [5] it was 50.2 µM; in test [6] it was less than 0.01 µM. Besides, the values for the TGI in test [10] and in test [7] were 19.5 µM and greater than 100 µM, respectively.

Consider `COc1ccc(C(=O)C(C(=O)CCC(=O)Nc2cccc(Cl)c2)c2ccc(OC)cc2)cc1` (centres undefined), for which the TGI in test [1], in [3], in test [4], in test [5], in test [6] and in test [10] was greater than 100 µM each time. The total growth inhibition concentration (TGI) in test [7], in [8] and in test [9] was greater than 100 µM in each case.

On to `Cc1cc(S(=O)(=O)Nc2nnc(-c3ccccc3)c(-c3ccccc3)n2)c(SCC(N)=O)cc1Cl`, for which the GI50 in test [1] is 57.8 µM; in [2], 34.6 µM; in [3] it was 20.7 µM; in test [4], greater than 100 µM; in [5], greater than 100 µM; in [6] it was 53.3 µM. Moreover, the figures for the GI50 in test [7], in [8] and in test [9] were 62.3 µM, 30.2 µM and 31.1 µM, respectively. In addition, the concentration for total growth inhibition (TGI) in test [1] was greater than 100 µM; in test [2] it was 85.1 µM; in [3], 37.8 µM; in [4] it was greater than 100 µM; in test [5], greater than 100 µM; in test [6] it was greater than 100 µM. For the same compound, the results for the TGI in test [7], in test [8] and in test [9] were greater than 100 µM, greater than 100 µM and 78.4 µM, respectively.

Regarding `Cc1cccc(NC(=O)/C(=N\NC(C)(C)C)C2NC(=S)NC2=O)c1C` (centres undefined), the total growth inhibition concentration (TGI) in [1], in test [3], in test [4], in [5], in test [6] and in test [10] was greater than 100 µM throughout. The TGI in test [8] and in test [9] was greater than 100 µM in each case.

For `N=C1C(c2nc3ccccc3s2)=C(O)CN1c1cc(C(F)(F)F)ccc1Cl`, the GI50 in test [1] is 6.61 µM; in test [2], 22.7 µM; in [3] it was 8.59 µM; in [4] it was 24.6 µM; in test [5], 52.1 µM; in test [6] it was 5.75 µM. In addition, the results for the GI50 in test [10], in test [7] and in [9] were 2.73 µM, 15.5 µM and 9.55 µM, respectively. Moreover, the concentration for total growth inhibition (TGI) is 46.7 µM in test [1]; greater than 100 µM in test [2]; 62.2 µM in [3]; 97.9 µM in test [4]; greater than 100 µM in [5]; 30.2 µM in [6]. For the same compound, the figures for the concentration for total growth inhibition (TGI) in [10], in test [7] and in test [9] were 16.3 µM, 69.6 µM and greater than 100 µM, respectively.

As to `CN1c2ccc(Cl)cc2C(=O)NC1c1ccc([N+](=O)[O-])s1` (centres undefined), the TGI in [1] turned out to be 31.6 µM; in [2], 28.8 µM; in [3], 29 µM; in [4] it was 32.8 µM; in test [5], 48.5 µM; in test [6], 49.3 µM. For the same compound, the figures for the TGI in test [10], in test [7] and in test [9] were 31.1 µM, 30.9 µM and 32.5 µM, respectively.

`Cc1cccc(N2CCN(C(=S)c3ccc4c(c3)OCO4)CC2)c1`: the GI50 in test [1] is 0.437 µM; in test [2], 1.88 µM; in test [3], 0.513 µM; in test [4], 0.799 µM; in test [6] it was 0.659 µM; in [10], 3.76 µM. For the same compound, the GI50 in test [9] was 1.89 µM. Also, the TGI in [1] was 35.1 µM; in test [2], greater than 100 µM; in test [3], greater than 100 µM; in test [4], 67.9 µM; in test [6] it was 19 µM; in test [10], greater than 100 µM. The total growth inhibition concentration (TGI) in [9] was greater than 100 µM.

Turning to `COc1cc2nc3cc([N+](=O)[O-])ccc3c(NCCCNCCO)c2cc1OC`, the GI50 in test [2] was 0.243 µM; in [3], 0.115 µM; in test [4], 0.214 µM; in test [5], 0.276 µM; in test [6], 0.463 µM; in test [8], 0.189 µM. In test [9], the GI50 is 0.149 µM. The TGI in test [2] was determined as 0.664 µM; in test [3], 0.385 µM; in test [4], 0.527 µM; in test [5] it was 0.923 µM; in test [6], 4.32 µM; in test [8] it was 0.359 µM. The compound further had a TGI in [9] of 0.433 µM.

For `O=C(Cc1ccccc1)NN1C(=O)C(Cl)C1c1cc(Br)ccc1O` (centres undefined), the TGI in test [1] was greater than 100 µM; in test [2] it was greater than 100 µM; in test [3], greater than 100 µM; in [5] it was greater than 100 µM; in test [6] it was 13.6 µM; in [10] it was greater than 100 µM. Further, the TGI in [7] is greater than 100 µM; in test [8], greater than 100 µM; in test [9], 32.6 µM.

For `O=C1CCN2C(=O)CCN12`, the concentration for total growth inhibition (TGI) in test [3], in test [4], in test [5], in test [6], in test [7] and in test [8] was greater than 100 µM each time. In addition, the total growth inhibition concentration (TGI) in [9] is greater than 100 µM.

Turning to `CC(C)(C)c1cc(Br)c(O)c(CN(Cc2cc(C(C)(C)C)cc(Br)c2O)C2CCCCC2)c1`, the total growth inhibition concentration (TGI) in test [1] worked out at 22.8 µM; in test [2] it was 29.8 µM; in test [3], 25 µM; in test [4], 26.3 µM; in [5], 29.2 µM; in [6] it was 35.8 µM. Further, the total growth inhibition concentration (TGI) in test [7] stood at 28 µM; in test [8] it was 24.1 µM; in test [9], 26.8 µM.

For the compound `CC(C)C(NC(=O)OC(C)(C)C)C(=O)N(C)C(Cc1ccccc1)C(=O)N(C)C(C(=O)O)C(C)C` (stereo not drawn) (Boc-Val-[NMeF]-[NMeV]-OH; configuration not given here), the TGI in test [1], in [2], in test [3], in test [5], in test [6] and in test [10] was greater than 100 µM each time. The concentration for total growth inhibition (TGI) in test [7], in test [8] and in test [9] was greater than 100 µM in each case.

On to `COC1=C(C)C(=O)c2c(c(COC(N)=O)c3n2CC2C3N2C)C1=O` (centres undefined), for which the TGI was 0.15 µM in test [1]; 0.053 µM in [2]; 0.0641 µM in test [3]; 0.206 µM in test [4]; 0.0542 µM in [5]; 0.17 µM in test [6]. For the same compound, the TGI in [7] was found to be 0.221 µM; in test [8], 0.164 µM; in test [9] it was 0.0231 µM.

In the case of `COc1ccccc1CNCCCN1C(=O)c2ccc3c4c(ccc(c24)C1=O)C(=O)N(CCCOCCCCOCCCN)C3=O`, the GI50 in test [1] was 0.288 µM; in test [2], 1.26 µM; in test [4] it was 1.3 µM; in test [5] it was 1.97 µM; in test [6] it was 0.668 µM; in test [10], 0.625 µM. In addition, the GI50 in test [7] is 1.24 µM; in test [9], 1.23 µM. The total growth inhibition concentration (TGI) was determined as 1.18 µM in [1]; 3.01 µM in test [2]; 2.7 µM in test [4]; 3.93 µM in test [5]; 2.06 µM in [6]; 2.02 µM in test [10]. Besides, the TGI was 2.78 µM in test [7] and 2.69 µM in [9].

Consider `C[C@@]12CC=C3c4nc(Nc5cccc(O)c5)sc4CC[C@]3(C)[C@H]1CC[C@]1(C)C(=O)CC[C@@H]21`, for which the GI50 in [1] is 5.7 µM; in [2] it was 1.67 µM; in test [4] it was 18 µM; in [5], 2.18 µM; in test [6], 2.35 µM; in [9], 2.24 µM. Besides, the TGI in test [1] was greater than 100 µM; in test [2] it was 3.15 µM; in test [4], 75.8 µM; in [5], 6.44 µM; in test [6], 6.48 µM; in test [9] it was 16.9 µM.
